Reference: PMC6005341, “Identification of “sarsasapogenin-aglyconed” timosaponins as novel Aβ-lowering modulators of amyloid precursor protein processing” (Chemical Science, 2016)

Experiments:
[1] = test system: Aβ42 production in N2A-APPswe cells; assay: Aβ42 in conditioned medium of N2A-APPswe cells by ELISA, 18 h treatment; assay type: cell-based; details: for decrease in Aβ42 / Aβ42-lowering effect (in words): N2A-APPswe cells; for decrease in Aβ42: 18 h; for IC50: N2a-APPswe, read-out: IC50 in lowering Aβ42 production, N2A-APPswe cells, mean ± standard deviation, n ≥ 3
Text: Sigma-Aldrich Chemical Co. unless otherwise specified. SSG (1) was purchased from Wako Pure Chemical Industries, Ltd. Diosgenin (6), Dioscin (9), Polyphyllin D (10), Timosaponin BI (22) and Timosaponin BII (23) were purchased from Chengdu Must Bio-Technology Co.
Ltd. Yamogenin (7) was bought from Ambinter c/o Greenpharma while Smilagenin (24) was bought from Steraloids Inc. Substances dissolved in DMSO as stock solutions. Cell culture medium constituents were purchased from Life Technologies, Inc.
Cell culture: Neuro-2A cells expressing Swedish mutants of APP (N2A-APPswe provided by Prof. Yifan Han, The Hong Kong Polytechnic University)1 was cultured in minimal essential medium with 2 mM glutamine, 2 mM pyruvate and 10% fetal bovine serum. […]
Aβ ELISA: Aβ concentrations in conditioned medium were assayed using ELISA kits for […]

[2] = Plasma and brain concentrations by LC-MS/MS; assay type: in vivo, mice; details: for Plasma Precursor: mice n = 6, three repeated oral doses 100 mg/kg in two days
Protocol: Animal experiments: Male C57BL/6N mice were housed in environmentally controlled room (temperature: 25 ± 2 °C, humidity: 50 ± 5%, 12-h light-dark cycle) in Laboratory Animal Unit, The University of Hong Kong and were freely access to food and water. TAIII, TAI SSG and compound 34 were dissolved in 5% Tween 80 and given to the mice by oral gavage at three repeated doses of 100 mg/kg in 48 hours. Mice were administrated with 5% Tween 80 (control group), TAIII, TAI SSG and 34. The experimental procedures were performed with the approval of Committee of Use of Live Animal for Teaching and Research of The University of Hong Kong. Blood (about 600-800 µL) was collected by cardiac puncture and added with 1/10 volume of Na2EDTA (20 mg/mL) to prevent coagulation. After centrifugation at 3000 g for 15 min at 4 °C, plasma was transferred to a centrifuge tube. The brain was dissected into two hemispheres on ice, weighed and frozen in liquid nitrogen immediately. The left brain was homogenized with 1 mL of buffer containing 5 M guanidine HCl, 50 mM Tris HCl, pH 8.0, with protease inhibitor cocktail and AEBSF using a Polytron and the homogenates were allowed to stand at room temperature for 3h. Both plasma and brain samples were stored at -80 °C until they were analyzed. […]
B. Determination of timosaponin levels in mice plasma and brain by ultra-high pressure liquid chromatography tandem mass spectrometry
The UPLC-ESI-QTOF consists of a Waters Q-TOF PremierTM mass spectrometer (Micromass MS Technologies, Manchester, UK) operated in positive ion mode and a Waters ACQUITY TM UPLC system. The mass spectrometer conditions were optimized as follows: source […]
temperature, 120 °C; desolvation temperature, 500 °C; nebulization gas flow rate, 1000 L/h; cone gas flow rate, 20 L/h; capillary voltage, 2.5 kV; sampling cone voltage, 28V. The data were collected into two separate data channels with the instrument spending 0.5 s on data acquisition for each channel and a 0.1 s inter-channel delay. The mass spectrometer was calibrated by using the solution of sodium formate (0.5 mM) and the TOF scan range was from 100 to 1000 Da. In order to improve mass measurement accuracy a lock mass compound (50 pg µL−1 solution of leucine encephalin; m/z 556.2771) was continuously infused at a 0.5 mL min-1 using the built-in syringe pump of the instrument.
Sample was loaded into a Waters ACQUITY TM BEH C18 column (100 × 2.1 mm i.d., 1.7 µM) connected to a Waters ACQUITY TM BEH C18 guard column (5 × 2.1 mm i.d., 1.7 µM). The gradient elution system consisted of 0.1% formic acid in water (A) and 0.1% formic acid in acetonitrile (B). Separation was achieved by using: 30%-55% B from 0 to 3 min; 55-100% B from 3 to 6 min; 100% B from 6 to 12 min and returned to initial conditions and equilibrated for 3 minutes. The flow rate was 0.3 mL/min and the injection volume was 5 µL.
Standard preparation and sample preparation
Stock solution (10 µM ) of each analyte was prepared by dissolving in methanol. They were subject to serial dilution to give calibration curves of SSG 1 (plasma: y = 8.7485× - 0.0676; […]
each concentration of each analyte was transferred to a centrifuge tube and evaporated to dryness by a concentrator. Dioscin (20 µL , 10 µM) was added as an internal standard followed by methanol (130 µL) and control plasma (50 µL). The mixture was vortexed for 5 s and centrifuged (15000 × g) for 15 min. The supernatant was collected and evaporated to dryness by a concentrator. Methanol (100 µL) was added and then vortexed again for 10 s and centrifuged (15000 × g) for 20 min. The supernatant (5 µL) was subject to LC-MS/MS analysis. Analyte-treated plasma, control brain and analyte-treated brain were prepared in a […]
The acquisition and processing of data were performed by Masslynx (version 4.1) software.
Mass window of ±10 mDa and mass resolution of 9000 were set for both molecular ions and product ions. MS full scan was applied to acquire high abundant molecular ions [M+H]+ with […]

[3] = any metabolite, mice n = 6, three oral doses 100 mg/kg in two days
[4] = mice n = 6, three oral doses 100 mg/kg in two days

## C[C@H]1CC[C@@]2(OC1)O[C@H]1C[C@H]3[C@@H]4CC[C@@H]5C[C@@H](O)CC[C@]5(C)[C@H]4CC[C@]3(C)[C@H]1[C@@H]2C [SSG (1), sarsasapogenin]
[1]; 50 μM
  decrease in Aβ42: 55%
[1]; 100 μM
  decrease in Aβ42: 40%
[1]
  IC50: 53 ± 9 µM
[2]; [3]
  Brain Metabolite: Not detected
  Plasma Metabolite: Not detected
[2]; [4]
  Brain Precursor: 1.042 ± 0.418 µM
[2]
  Plasma Precursor: 0.118 ± 0.062 µM

## C[C@H]1CC[C@@]2(OC1)O[C@H]1C[C@H]3[C@@H]4CC[C@@H]5C[C@@H](O[C@@H]6O[C@H](CO)[C@H](O)[C@H](O)[C@H]6O)CC[C@]5(C)[C@H]4CC[C@]3(C)[C@H]1[C@@H]2C [TAI (3), timosaponin A I]
[1]
  Aβ42-lowering effect (in words): effectively lowered
  IC50: ~6.1 µM
[2]; [4]
  Brain Precursor: 1.174 ± 0.401 µM
[2]
  Plasma Precursor: 3.361 ± 0.925 µM

## C[C@H]1CC[C@@]2(OC1)O[C@H]1C[C@H]3[C@@H]4CC[C@@H]5C[C@@H](O[C@@H]6O[C@H](CO)[C@H](O)[C@H](O)[C@H]6O[C@@H]6O[C@H](CO)[C@@H](O)[C@H](O)[C@H]6O)CC[C@]5(C)[C@H]4CC[C@]3(C)[C@H]1[C@@H]2C [TAIII (2), timosaponin A III]
[1]
  Aβ42-lowering effect (in words): effectively lowered
  IC50: ~2.3 µM
[2]; [4]
  Brain Precursor: Not detected
[2]
  Plasma Precursor: 0.050 ± 0.058 µM
